{"source": "patent US9499550B2", "about": "(BRISTOL-MYERS SQUIBB COMPANY, priority 2012, dated 2016)", "key": {"[1]": {"tested_on": "HCV genotype 1b (Con1) replicon in HUH-7 cells", "assay": "HCV replicon luciferase reporter assay, genotype 1b", "format": "cell-based", "conditions": "Hepatitis C virus, Huh-7, 72 h, 3 days incubation", "summary_of_the_method": "(§1)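 Replicon inhibition for both genotypes was measured as Renilla luciferase signal (EnduRen, 7.5 μM final, 2 h) after 3-day, 37° C exposure of replicon-bearing HUH-7 cells in 4% FCS DMEM, 0.5% DMSO. The 1b construct carries S1179I; the 1a H77 construct carries P1496L and S2204I. Twenty-point, 3-fold dilutions were fitted four-parametrically for EC50, and CC50 was taken from multiplexed Cell Titer-Blue.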"}, "[2]": {"tested_on": "HCV genotype 1a (H77 strain) replicon in HUH-7 cells", "assay": "HCV replicon luciferase reporter assay, genotype 1a", "format": "cell-based", "conditions": "Hepatitis C virus, Huh-7, 72 h, 3 days incubation", "summary_of_the_method": "as §1"}, "[3]": {"conditions": "GETYPE1B, HCV genotype 1b replicon luciferase, read-out: LE_1b (EC50, range)"}, "[4]": {"conditions": "GETYPE1A, HCV genotype 1a replicon luciferase, read-out: LE_1a (EC50, range)"}, "[5]": {"conditions": "HCV genotype 1b replicon luciferase, read-out: LE_1b (EC50, range)"}, "[6]": {"conditions": "HCV genotype 1a replicon luciferase, read-out: LE_1a (EC50, range)"}, "[7]": {"conditions": "HCV genotype 1b replicon luciferase assay, range class, read-out: LE_1b (EC50, range)"}, "[8]": {"conditions": "HCV genotype 1a replicon luciferase assay, range class, read-out: LE_1a (EC50, range)"}}, "note": "Read-outs that look alike come from different tables or passages of the source."}
{"smiles": "CC[C@@H]1C[C@H](C)CC/C=C\\[C@@H]2C[C@@]2(C(=O)NS(=O)(=O)C2CC2)NC(=O)[C@@H]2C[C@@H](Oc3nc4cc(OC)c(F)cc4nc3C(F)(F)F)CN2C(=O)[C@H]1NC(=O)OC(C)(C)C(F)(F)F", "note": "[Compound 4267]", "values": [{"measurement": "EC50", "setting": "[1]; [3]", "result": "1.01 to 5", "unit": "nM"}, {"measurement": "EC50", "setting": "[2]; [4]", "result": "5.01 to 35", "unit": "nM"}]}
{"smiles": "COc1cnc(O[C@@H]2C[C@H]3C(=O)N[C@]4(C(=O)NS(=O)(=O)C5(F)CC5)C[C@H]4/C=C\\CC[C@@H](C)C[C@@H](C)[C@H](NC(=O)OC(C)(C)C(F)(F)F)C(=O)N3C2)c2cccc(Cl)c12", "note": "[Compound 30]", "values": [{"measurement": "EC50", "setting": "[1]; GETYPE1B, HCV genotype 1b replicon luciferase assay, range class, read-out: LE_1b (EC50, range)", "result": "< 5.46", "unit": "nM"}, {"measurement": "EC50", "setting": "[2]; GETYPE1A, HCV genotype 1a replicon luciferase assay, range class, read-out: LE_1a (EC50, range)", "result": "< 5.46", "unit": "nM"}]}
{"smiles": "C[C@H]1CC/C=C\\[C@@H]2C[C@@]2(C(=O)NS(=O)(=O)C2(C)CC2)NC(=O)[C@@H]2C[C@@H](Oc3nccc4c5c(ccc34)N(C)CCO5)CN2C(=O)[C@@H](NC(=O)O[C@@H]2C[C@@H]3C[C@@H]3C2)[C@H](C)C1", "note": "[Compound 5299, (1R,3r,5S)-bicyclo[3.1.0]hexan-3-yl((2R,6S,7R,9S,13aS,14aR,16aS,Z)-7,9-dimethyl-2-((4-methyl-3,4-dihydro-2H-[1,4]oxazino[2,3-f]isoquinolin-7-yl)oxy)-14a-(((1-methylcyclopropyl)sulfonyl)carbamoyl)-5,16-dioxo-1,2,3,5,6,7,8,9,10,11,13a,14,14a,15,16,16a-hexadecahydrocyclopropa[e]pyrrolo[1,2-a][1,4]diazacyclopentadecin-6-yl)carbamate]", "values": [{"measurement": "EC50", "setting": "[1]; [5]", "result": "< 5.46", "unit": "nM"}, {"measurement": "EC50", "setting": "[2]; [6]", "result": "< 5.46", "unit": "nM"}]}
{"smiles": "COc1cc2c(OC)cnc(O[C@@H]3C[C@H]4C(=O)N[C@]5(C(=O)NS(=O)(=O)C6(CF)CC6)C[C@H]5/C=C\\CC[C@@H](C)C[C@@H](C)[C@H](NC(=O)c5c(F)cc(F)cc5F)C(=O)N4C3)c2cc1F", "note": "[Compound 4117, (2R,6S,7R,9R,13aS,14aR,16aS,Z)-2-(7-fluoro-4,6-dimethoxyisoquinolin-1-yloxy)-N-(1-(fluoromethyl)cyclopropylsulfonyl)-7,9-dimethyl-5,16-dioxo-6-(2,4,6-trifluorobenzamido)-1,2,3,5,6,7,8,9,10,11,13a,14,14a,15,16,16a-hexadecahydrocyclopropa[e]pyrrolo[1,2-a][1,4]diazacyclopentadecine-14a-carboxamide]", "values": [{"measurement": "EC50", "setting": "[1]; [5]", "result": "< 5.46", "unit": "nM"}, {"measurement": "EC50", "setting": "[2]; [6]", "result": "< 5.46", "unit": "nM"}]}
{"smiles": "CCOc1ccc2c(O[C@@H]3C[C@H]4C(=O)N[C@]5(C(=O)NS(=O)(=O)C6(C)CC6)C[C@H]5/C=C\\CC[C@H](C)C[C@@H](C)[C@H](NC(=O)OC(C)(C)C)C(=O)N4C3)nccc2c1", "note": "[Compound 5133, tert-butyl ((2R,6S,7R,9S,13aS,14aR,16aS,Z)-2-((6-ethoxyisoquinolin-1-yl)oxy)-7,9-dimethyl-14a-(((1-methylcyclopropyl)sulfonyl)carbamoyl)-5,16-dioxo-1,2,3,5,6,7,8,9,10,11,13a,14,14a,15,16,16a-hexadecahydrocyclopropa[e]pyrrolo[1,2-a][1,4]diazacyclopentadecin-6-yl)carbamate]", "values": [{"measurement": "EC50", "setting": "[1]; [5]", "result": "< 5.46", "unit": "nM"}, {"measurement": "EC50", "setting": "[2]; [6]", "result": "4.82 to 103", "unit": "nM"}]}
{"smiles": "CC(C)n1nc(O[C@@H]2C[C@H]3C(=O)N[C@]4(C(=O)NS(=O)(=O)C5(C)CC5)C[C@H]4/C=C\\CC[C@@H](C)C[C@@H](C)[C@H](NC(=O)OC(C)(C)C(F)(F)F)C(=O)N3C2)c2ccccc2c1=O", "note": "[Compound 1012, 1,1,1-trifluoro-2-methylpropan-2-yl((2R,6S,7R,9R,13aS,14aR,16aS,Z)-2-((3-isopropyl-4-oxo-3,4-dihydrophthalazin-1-yl)oxy)-7,9-dimethyl-14a-(((1-methylcyclopropyl)sulfonyl)carbamoyl)-5,16-dioxo-1,2,3,5,6,7,8,9,10,11,13a,14,14a,15,16,16a-hexadecahydrocyclopropa[e]pyrrolo[1,2-a][1,4]diazacyclopentadecin-6-yl)carbamate]", "values": [{"measurement": "EC50", "setting": "[1]; [7]", "result": "4.82 to 103", "unit": "nM"}, {"measurement": "EC50", "setting": "[2]; [8]", "result": "4.82 to 103", "unit": "nM"}]}
{"smiles": "CC[C@@H]1C[C@H](C)CC/C=C\\[C@@H]2C[C@@]2(C(=O)NS(=O)(=O)C2(C)CC2)NC(=O)[C@@H]2C[C@@H](Oc3nc4c(c5cc(OC)c(F)cc35)CCCO4)CN2C(=O)[C@H]1NC(=O)OC(C)(C)C(C)(F)F", "note": "[Compound 1198]", "values": [{"measurement": "EC50", "setting": "[1]; GETYPE1B, HCV genotype 1b replicon luciferase, read-out: LE_1b (EC50)", "result": 0.9, "unit": "nM"}, {"measurement": "EC50", "setting": "[1]; [3]", "result": "0.51 to 1", "unit": "nM"}, {"measurement": "EC50", "setting": "[2]; GETYPE1A, HCV genotype 1a replicon luciferase, read-out: LE_1a (EC50)", "result": 0.5, "unit": "nM"}, {"measurement": "EC50", "setting": "[2]; [4]", "result": "0.1 to 0.5", "unit": "nM"}]}
{"smiles": "COc1cc2cc(-c3ccc(OC(C)C)cc3)nc(O[C@@H]3C[C@H]4C(=O)N[C@]5(C(=O)NS(=O)(=O)C6(C)CC6)C[C@H]5/C=C\\CC[C@@H](C)C[C@@H](C)[C@H](NC(=O)OC(C)(C)C(F)(F)F)C(=O)N4C3)c2cc1F", "note": "[Compound 3186, 1,1,1-trifluoro-2-methylpropan-2-yl((2R,6S,7R,9R,13aS,14aR,16aS,Z)-2-((7-fluoro-3-(4-isopropoxyphenyl)-6-methoxyisoquinolin-1-yl)oxy)-7,9-dimethyl-14a-(((1-methylcyclopropyl)sulfonyl)carbamoyl)-5,16-dioxo-1,2,3,5,6,7,8,9,10,11,13a,14,14a,15,16,16a-hexadecahydrocyclopropa[e]pyrrolo[1,2-a][1,4]diazacyclopentadecin-6-yl)carbamate]", "values": [{"measurement": "EC50", "setting": "[1]; [5]", "result": "< 5.46", "unit": "nM"}, {"measurement": "EC50", "setting": "[2]; [6]", "result": "< 5.46", "unit": "nM"}]}
{"smiles": "[2H]C([2H])([2H])Oc1cc2ccnc(O[C@@H]3C[C@H]4C(=O)N[C@]5(C(=O)NS(=O)(=O)C6(C)CC6)C[C@H]5/C=C\\CC[C@@H](C)C[C@@H](CC)[C@H](NC(=O)OC(C([2H])([2H])[2H])(C([2H])([2H])[2H])C(F)(F)F)C(=O)N4C3)c2cc1F", "note": "[Compound 5505]", "values": [{"measurement": "EC50", "setting": "[1]; [5]", "result": "1.01 to 5", "unit": "nM"}, {"measurement": "EC50", "setting": "[2]; [6]", "result": "5.01 to 35", "unit": "nM"}]}
{"smiles": "[2H]C([2H])([2H])C(OC(=O)N[C@@H]1C(=O)N2C[C@H](Oc3nccc4cc(OCCC)ccc34)C[C@H]2C(=O)N[C@]2(C(=O)NS(=O)(=O)C3CC3)C[C@H]2/C=C\\CC[C@@H](C)C[C@H]1C)(C([2H])([2H])[2H])C(F)(F)F", "note": "[Compound 5173]", "values": [{"measurement": "EC50", "setting": "[1]; [5]", "result": "< 5.46", "unit": "nM"}, {"measurement": "EC50", "setting": "[2]; [6]", "result": "< 5.46", "unit": "nM"}]}
{"smiles": "CCOc1cnc(O[C@@H]2C[C@H]3C(=O)N[C@]4(C(=O)NS(=O)(=O)C5CC5)C[C@H]4/C=C\\CC[C@@H](C)C[C@@H](C)[C@H](NC(=O)OC(C)(C)C)C(=O)N3C2)c2ccccc12", "note": "[Compound 16, tert-butyl ((2R,6S,7R,9R,13aS,14aR,16aS,Z)-14a-((cyclopropylsulfonyl)carbamoyl)-2-((4-ethoxyisoquinolin-1-yl)oxy)-7,9-dimethyl-5,16-dioxo-1,2,3,5,6,7,8,9,10,11,13a,14,14a,15,16,16a-hexadecahydrocyclopropa[e]pyrrolo[1,2-a][1,4]diazacyclopentadecin-6-yl)carbamate]", "values": [{"measurement": "EC50", "setting": "[1]; [7]", "result": "< 5.46", "unit": "nM"}, {"measurement": "EC50", "setting": "[2]; [8]", "result": "< 5.46", "unit": "nM"}]}
{"smiles": "CC[C@@H]1C[C@@H](C)CC/C=C\\[C@@H]2C[C@@]2(C(=O)NS(=O)(=O)C2CC2)NC(=O)[C@@H]2C[C@@H](Oc3nc(OC)cc4ccccc34)CN2C(=O)[C@H]1NC(=O)OC(C)(C)C(F)(F)F", "note": "[Compound 6002, 1,1,1-trifluoro-2-methylpropan-2-yl((2R,6S,7R,9S,13aS,14aR,16aS,Z)-14a-((cyclopropylsulfonyl)carbamoyl)-7-ethyl-2-((3-methoxyisoquinolin-1-yl)oxy)-9-methyl-5,16-dioxo-1,2,3,5,6,7,8,9,10,11,13a,14,14a,15,16,16a-hexadecahydrocyclopropa[e]pyrrolo[1,2-a][1,4]diazacyclopentadecin-6-yl)carbamate]", "values": [{"measurement": "EC50", "setting": "[1]; [5]", "result": "< 5.46", "unit": "nM"}, {"measurement": "EC50", "setting": "[2]; [6]", "result": "4.82 to 103", "unit": "nM"}]}
